Measurements taken from publication PMC11784359 (Antimicrobial Agents and Chemotherapy, 2024).
Converted amounts (≈) assume the structure as drawn. “And” between values parts separate entries of the source, which are not always exact repeats. Equal entries are not always repeated. Where two headings read alike, the source gives them in different places. Marks after values point to notes of the source that are not given here.

Experiments:
[1] = test system: Burkholderia pseudomallei; test: microbe, parasite or virus in culture; format: cell-based
[2] = test system: Escherichia coli ATCC 25922; test: microbe, parasite or virus in culture; format: cell-based
[3] = test system: Pseudomonas aeruginosa ATCC 27853; test: microbe, parasite or virus in culture; format: cell-based
[4] = test system: Staphylococcus aureus ATCC 29213; test: microbe, parasite or virus in culture; format: cell-based
[5] = test system: B. pseudomallei strain K96243; design: species or system Burkholderia pseudomallei; details: in vivo
biothreat pathogens = format: cell-based
[6] = mouse, in vivo
[7] = mouse, in vivo; remark: listed apart in the source
[8] = test system: Escherichia coli, Klebsiella pneumoniae, and Pseudomonas aeruginosa; details: cited from earlier work

## CC(C)(O/N=C(\C(=O)N[C@@H]1C(=O)N2C(C(=O)[O-])=C(C[n+]3ccccc3)CS[C@H]12)c1csc(N)n1)C(=O)O [Ceftazidime, ceftazidime, reference compound]
[1]
  MIC50: 2 µg/mL (≈ 3.66 µM)
  MIC90: 8 µg/mL (≈ 14.6 µM)
[1]; NCTC4845
  MIC: 2 µg/mL (≈ 3.66 µM)
[2]; Escherichia coli, ATCC25922
  MIC: 0.12 µg/mL (≈ 0.22 µM)
[3]; Pseudomonas aeruginosa, ATCC27853
  MIC: 1 µg/mL (≈ 1.83 µM)
[4]; Staphylococcus aureus, ATCC29213
  MIC: 8 µg/mL (≈ 14.6 µM)
[5]
  Survival log-rank (Mantel–Cox) test P: <0.0001^a
  day average body weight started to decline again: 11 days
  day mean body weight began to recover: > 5 days
  survival at the end of the 29-day observation phase: 20%
  survival during the treatment phase: 70%

## C[C@@](O)(C(F)F)[C@H](NC(=O)c1ccc(C#CC#CC2CC2)cc1)C(=O)NO [LPC-233]
[2]
  MIC: ≤0.008 µg/mL
[3]
  MIC: 0.25 µg/mL (≈ 0.664 µM)
[4]
  MIC: >16 µg/mL
[5]
  P, rescue of mice from infection in comparison with the vehicle: < 0.0001
  average body weight after recovery: maintained a steady average weight to the end of the study
  bacterial burden in the lungs at study termination compared to ceftazidime-treated animals: reduction of CFUs in the lungs
  day average body weight declined again: 15 days and 25 days
  day mean body weight began to recover (turning point): 4 days and 2 days
  final survival rate at the end of the observation period: 60% and 80% and 90%
  median time to death: 6.3 days
  recovery of average body weight: did not recover
  survival: did not support survival
  survival during the treatment phase: 100%
[5]; 30 mg/kg
  P range, survival/times to death versus the ceftazidime group: 0.001–0.05
  time following the last dose without deaths: 15 days
[5]; 90 mg/kg
  Survival log-rank (Mantel–Cox) test P: 0.5
[5]; ip, 90 mg/kg
  Survival log-rank (Mantel–Cox) test P: <0.0001^a and 0.009^a
[5]; po, 10 mg/kg
  Survival log-rank (Mantel–Cox) test P: <0.0001^a and 0.008^a
[5]; po, 30 mg/kg
  Survival log-rank (Mantel–Cox) test P: <0.0001^a and 0.05^a
[5]; po, 90 mg/kg
  Survival log-rank (Mantel–Cox) test P: <0.0001^a and 0.001^a
Biothreat pathogens
  MIC90 values for biothreat pathogens, folds lower than previous compounds such as ACHN-975: 4–8 folds
[6]; 30 mg/kg
  concentration of the drug in ELF samples: 100 to 400 ng/mL
[6]; 100 mg/kg
  increase in AUC, 100 mg/kg IP compared to oral 100 mg/kg: 2 fold
  increase in Cmax, 100 mg/kg IP compared to oral 100 mg/kg: 2 fold
[6]; ip, 100 mg/kg
  Inf fT > MIC (free time above MIC): ≥6 h
[6]; po, 10 mg/kg
  Inf fT > MIC (free time above MIC): ≥6 h
[6]; po, 30 mg/kg
  Inf fT > MIC (free time above MIC): ≥6 h
[6]; po, 100 mg/kg
  Inf fT > MIC (free time above MIC): ≥6 h
[7]
  Clearance: 14.7 mL/min/kg
  period plasma concentration remained above MIC90: ≥ 24 h
[7]; 100 mg/kg
  AUCELF (0–48 h): 334.6 µg·h/mL
  AUCplasma (0–48 h): 398.6 µg·h/mL
  ELF penetration (AUCELF/AUCplasma, 0–48 h): 83.9%
[8]
  predicted MIC shift based on plasma protein unbound fraction: ~ 30 fold
  shift of MIC values in the presence of 50% mouse plasma: 4–9 fold
